Numbers after ± are expanded uncertainties.
Assays:
[1] = 298.15 K; 101.33 kPa; Liquid; Vibrating tube method
[2] = excess molar enthalpy (molar enthalpy of mixing); xn = mol fraction of the nth substance listed; details: 298.15 K, 101 kPa, Liquid, Calvet calorimetry

| Structure (SMILES) | molar volume [1] [m3/mol] | excess molar enthalpy ([2]; x1 = 0.5) [kJ/mol] | also measured |
| --- | --- | --- | --- |
| C[Si](C)(C)O[Si](C)(C)O[Si](C)(C)O[Si](C)(C)O[Si](C)(C)C [dodecamethylpentasiloxane] | 0.0004424 ± 9.7e-07 | – | – |
| C[Si]1(C)O[Si](C)(C)O[Si](C)(C)O[Si](C)(C)O[Si](C)(C)O1 [decamethylcyclopentasiloxane] + CCCCCCC | – | – | excess molar enthalpy ([2]; x2 = 0.5): 1 ± 1 kJ/mol |
| C[Si](C)(C)O[Si](C)(C)C [hexamethyldisiloxane] + CCCCCCC | – | 5 ± 1 | – |
| C[Si](C)(C)O[Si](C)(C)O[Si](C)(C)O[Si](C)(C)C [decamethyltetrasiloxane] | 0.0003662 ± 7.9e-07 | – | – |
| C[Si]1(C)O[Si](C)(C)O[Si](C)(C)O[Si](C)(C)O1 [octamethylcyclotetrasiloxane] + CCCCCCC | – | – | excess molar enthalpy ([2]; x2 = 0.5): 1 ± 1 kJ/mol |
| CCCCCCC [heptane] | 0.0001474 ± 5e-08 | – | – |
| C[Si](C)(C)O[Si](C)(C)C [hexamethyldisiloxane] | 0.000214 ± 6e-08 | – | – |
| C[Si](C)(C)O[Si](C)(C)O[Si](C)(C)O[Si](C)(C)O[Si](C)(C)C [dodecamethylpentasiloxane] + CCCCCCC | – | 1 ± 1 | – |
| C[Si](C)(C)O[Si](C)(C)O[Si](C)(C)O[Si](C)(C)C [decamethyltetrasiloxane] + CCCCCCC | – | 1 ± 1 | – |

Now from value to molecule, other results behind:

| molar volume [1] [m3/mol] | excess molar enthalpy ([2]; x1 = 0.5) [kJ/mol] | Structure (SMILES) | also measured |
| --- | --- | --- | --- |
| 0.0003889 ± 9.1e-07 | – | C[Si]1(C)O[Si](C)(C)O[Si](C)(C)O[Si](C)(C)O[Si](C)(C)O1 [decamethylcyclopentasiloxane] | – |
| 0.0002903 ± 3e-07 | – | C[Si](C)(C)O[Si](C)(C)O[Si](C)(C)C [octamethyltrisiloxane] | – |
| – | 1 ± 1 | C[Si](C)(C)O[Si](C)(C)O[Si](C)(C)C [octamethyltrisiloxane] + CCCCCCC | – |
| 0.0003121 ± 1e-07 | – | C[Si]1(C)O[Si](C)(C)O[Si](C)(C)O[Si](C)(C)O1 [octamethylcyclotetrasiloxane] | – |
